The values that follow are results of earlier work, collected in PMC3720659, “Integrated Analysis of Drug-Induced Gene Expression Profiles Predicts Novel hERG Inhibitors” (PLoS ONE, 2013).

For the first data set, the system named is hERG current. The conditions noted are these: annotation of the drug; Cell Line (HL60, MCF7, PC3) is the cell line of the drug-induced expression profile, not of the hERG assay; ref hERGcentral; cited from earlier work. Background: The hERG channel carries a current that helps repolarise heart muscle cells.
As to `CN(C)CCCN1c2ccccc2Sc2ccccc21` [promazine], the “Annotation (hERG inhibition class, Active/Inactive by IC50)” value was “Inactive”.

`CC(CN1c2ccccc2Sc2ccccc21)N(C)C` (stereo not shown) [promethazine]: the “Annotation (hERG inhibition class, Active/Inactive by IC50)” value is reported as “Inactive”.

Turning to `CC(C)[N+](C)(CCOC(=O)C1c2ccccc2Oc2ccccc21)C(C)C` [propantheline bromide], the “Annotation (hERG inhibition class, Active/Inactive by IC50)” value is “Inactive”.

`CC[N+](C)(CC)CCC[n+]1c(-c2ccccc2)c2cc(N)ccc2c2ccc(N)cc21` [propidium iodide]: the “Annotation (hERG inhibition class, Active/Inactive by IC50)” value is given as “Inactive”.

With `CCCOc1cc(N)ccc1C(=O)OCCN(CC)CC` [propoxycaine], the “Annotation (hERG inhibition class, Active/Inactive by IC50)” value is on record as “Inactive”.

Consider `C[C@@H]1O[C@@H](O[C@@H]2C=C3CC[C@@H]4[C@H](CC[C@]5(C)[C@@H](c6ccc(=O)oc6)CC[C@]45O)[C@@]3(C)CC2)[C@H](O)[C@H](O)[C@H]1O` [proscillaridin], for which the “Annotation (hERG inhibition class, Active/Inactive by IC50)” value is “Inactive”.

With `CC(O)Cn1cnc2c1c(=O)n(C)c(=O)n2C` (stereo not shown) [proxyphylline], the “Annotation (hERG inhibition class, Active/Inactive by IC50)” value is “Inactive”.

Consider `COc1ccc(C[C@H](N)C(=O)N[C@H]2[C@@H](O)[C@H](n3cnc4c(N(C)C)ncnc43)O[C@@H]2CO)cc1` [puromycin], for which the “Annotation (hERG inhibition class, Active/Inactive by IC50)” value was “Inactive”.

Turning to `CCC1(CC)C(=O)C=CNC1=O` [pyrithyldione], the “Annotation (hERG inhibition class, Active/Inactive by IC50)” value was “Inactive”.

In the case of `CCN1CCC[C@H]1CNC(=O)c1c(OC)ccc(Br)c1OC` [remoxipride], the “Annotation (hERG inhibition class, Active/Inactive by IC50)” value is on record as “Inactive”.

With `CCOc1cc(CC(=O)N[C@@H](CC(C)C)c2ccccc2N2CCCCC2)ccc1C(=O)O` [repaglinide], the “Annotation (hERG inhibition class, Active/Inactive by IC50)” value is “Inactive”.

As for `COC(=O)[C@H]1[C@H]2C[C@@H]3c4[nH]c5cc(OC)ccc5c4CCN3C[C@H]2C[C@@H](OC(=O)/C=C/c2cc(OC)c(OC)c(OC)c2)[C@@H]1OC` [rescinnamine], the “Annotation (hERG inhibition class, Active/Inactive by IC50)” value is on record as “Inactive”.

As to `Oc1ccc(/C=C/c2cc(O)cc(O)c2)cc1` [resveratrol], the “Annotation (hERG inhibition class, Active/Inactive by IC50)” value was “Inactive”.

As for `NC(=O)c1ncn([C@@H]2O[C@H](CO)[C@@H](O)[C@H]2O)n1` [ribavirin], the “Annotation (hERG inhibition class, Active/Inactive by IC50)” value is “Inactive”.

`CCC(=O)[C@@]1(C)[C@H](C)C[C@H]2[C@@H]3CCC4=CC(=O)C=C[C@]4(C)[C@H]3[C@@H](O)C[C@@]21C` [rimexolone]: the “Annotation (hERG inhibition class, Active/Inactive by IC50)” value is reported as “Inactive”.

As for `COc1ccc(C2CNC(=O)C2)cc1OC1CCCC1` (stereo not shown) [rolipram], the “Annotation (hERG inhibition class, Active/Inactive by IC50)” value is “Inactive”.

On to `CN(CCOc1ccc(CC2SC(=O)NC2=O)cc1)c1ccccn1` (stereo not shown) [rosiglitazone], for which the “Annotation (hERG inhibition class, Active/Inactive by IC50)” value is “Inactive”.

As to `C[C@@H]1NCCc2cc(O)c(O)cc21` [salsolinol], the “Annotation (hERG inhibition class, Active/Inactive by IC50)” value is given as “Inactive”.

Take `COc1cc2c(cc1O)[C@@H]1Cc3ccc(OC)c(O)c3CN1CC2` [scoulerine]: the “Annotation (hERG inhibition class, Active/Inactive by IC50)” value is given as “Inactive”.

`O=C1C=C2C=C[C@@H]3C[C@@]2(O1)[C@H]1CCCCN31` [securinine]: the “Annotation (hERG inhibition class, Active/Inactive by IC50)” value is “Inactive”.

In the case of `NCCc1c[nH]c2ccc(O)cc12` [serotonin], the “Annotation (hERG inhibition class, Active/Inactive by IC50)” value is “Inactive”.

Consider `C[C@]12CC[C@H]3[C@@H](CC[C@]4(O)C[C@@H](O)CC[C@]34C=O)[C@@]1(O)CC[C@@H]2C1=CC(=O)OC1` [strophanthidin], for which the “Annotation (hERG inhibition class, Active/Inactive by IC50)” value is given as “Inactive”.

In the case of `O=C(O)CCC(=O)Nc1ccc(S(=O)(=O)Nc2nccs2)cc1` [succinylsulfathiazole], the “Annotation (hERG inhibition class, Active/Inactive by IC50)” value is “Inactive”.

In the case of `Nc1ccc(S(=O)(=O)Nc2ncccn2)cc1` [sulfadiazine], the “Annotation (hERG inhibition class, Active/Inactive by IC50)” value is recorded as “Inactive”.

On to `COc1ncnc(NS(=O)(=O)c2ccc(N)cc2)c1OC` [sulfadoxine], for which the “Annotation (hERG inhibition class, Active/Inactive by IC50)” value is “Inactive”.

As for `[H]/N=C(/N)NS(=O)(=O)c1ccc(N)cc1` [sulfaguanidine], the “Annotation (hERG inhibition class, Active/Inactive by IC50)” value is reported as “Inactive”.

With `COc1cc(NS(=O)(=O)c2ccc(N)cc2)ncn1` [sulfamonomethoxine], the “Annotation (hERG inhibition class, Active/Inactive by IC50)” value is “Inactive”.

Take `Nc1ccc(S(=O)(=O)Nc2ccnn2-c2ccccc2)cc1` [sulfaphenazole]: the “Annotation (hERG inhibition class, Active/Inactive by IC50)” value was “Inactive”.

In the case of `Nc1ccc(S(=O)(=O)Nc2ccccn2)cc1` [sulfapyridine], the “Annotation (hERG inhibition class, Active/Inactive by IC50)” value is “Inactive”.

For `CC1=C(CC(=O)O)c2cc(F)ccc2/C1=C\c1ccc([S+](C)[O-])cc1` (stereo not shown) [sulindac], the “Annotation (hERG inhibition class, Active/Inactive by IC50)” value was “Inactive”.

For `CCCCCCCCNC(C)C(O)c1ccc(SC(C)C)cc1` (stereo not shown) [suloctidil], the “Annotation (hERG inhibition class, Active/Inactive by IC50)” value is reported as “Active”.

As to `CCN1CCCC1CNC(=O)c1cc(S(N)(=O)=O)ccc1OC` (stereo not shown) [sulpiride], the “Annotation (hERG inhibition class, Active/Inactive by IC50)” value is on record as “Inactive”.

For `CCOC(=O)Oc1c(OC)cc(C(=O)O[C@@H]2C[C@@H]3CN4CCc5c([nH]c6cc(OC)ccc56)[C@H]4C[C@@H]3[C@H](C(=O)OC)[C@H]2OC)cc1OC` [syrosingopine], the “Annotation (hERG inhibition class, Active/Inactive by IC50)” value was “Inactive”.

With `CC1(C)S[C@@H]2[C@H](NC(=O)[C@H](N)c3ccccc3)C(=O)N2[C@H]1C(=O)OC1OC(=O)c2ccccc21` (stereo partly shown) [talampicillin], the “Annotation (hERG inhibition class, Active/Inactive by IC50)” value is on record as “Inactive”.

As to `Cc1scc2c1N(C(=O)CN1CCN(C)CC1)c1ccccc1NC2=O` [telenzepine], the “Annotation (hERG inhibition class, Active/Inactive by IC50)” value is given as “Inactive”.

Turning to `CC(C)N1CCN(c2ccc(OCC3COC(Cn4cncn4)(c4ccc(Cl)cc4Cl)O3)cc2)CC1` (stereo not shown) [terconazole], the “Annotation (hERG inhibition class, Active/Inactive by IC50)” value is listed as “Inactive”.

Staying with this data set, now noted: cited from earlier work.
As for `NNCCc1ccccc1` [phenelzine], the “Annotation (hERG Active / Inactive)” value is reported as “Inactive”.

With `C=C(C)[C@@H]1[C@H]2OC(=O)[C@@H]1[C@]1(O)C[C@H]3O[C@]34C(=O)O[C@H]2[C@]14C` [picrotoxinin], the “Annotation (hERG Active / Inactive)” value is “Inactive”.

As for `O=c1[nH]c2ccccc2n1C1CCN(CCCC(c2ccc(F)cc2)c2ccc(F)cc2)CC1` [pimozide], the “Annotation (hERG Active / Inactive)” value is given as “Active”.

With `O=C(c1ccc(OCCN2CCCCC2)cc1)c1c(-c2ccc(O)cc2)sc2cc(O)ccc12` [raloxifene], the “Annotation (hERG inhibition class, Active/Inactive by IC50)” value is “Inactive”.

As to `Nc1c2c(nc3ccccc13)CCCC2` [tacrine], the “Annotation (hERG inhibition class, Active/Inactive by IC50)” value is recorded as “Inactive”.

On to `COc1ccc2cc1Oc1ccc(cc1)C[C@H]1c3cc(c(OC)cc3CCN1C)Oc1c(OC)c(OC)cc3c1[C@H](C2)N(C)CC3` [tetrandrine], for which the “Annotation (hERG inhibition class, Active/Inactive by IC50)” value is “Inactive”.

The same data set, now with this note: hERG inhibition annotation of the drug; the Cell Line (HL60, MCF7, PC3) is the cell line of the expression profile, not of the hERG test; cited from earlier work.
In the case of `NC[C@@H]1O[C@H](O[C@H]2[C@@H](O)[C@H](O[C@@H]3[C@@H](O)[C@H](N)C[C@H](N)[C@H]3O[C@H]3O[C@H](CO)[C@@H](O)[C@H](O)[C@H]3N)O[C@@H]2CO)[C@H](N)[C@@H](O)[C@@H]1O` [paromomycin], the “Annotation (hERG Active / Inactive)” value was “Inactive”.

As for `C=C1C(=O)O[C@H]2[C@H]1CC/C(C)=C/CC[C@@]1(C)O[C@@H]21` [parthenolide], the “Annotation (hERG Active / Inactive)” value is “Inactive”.

Regarding `CC(C)(C)NC[C@H](O)COc1ccccc1C1CCCC1` [penbutolol], the “Annotation (hERG Active / Inactive)” value is “Inactive”.

As to `CCCN1C[C@H](CSC)C[C@@H]2c3cccc4[nH]cc(c34)C[C@H]21` [pergolide], the “Annotation (hERG Active / Inactive)” value is on record as “Inactive”.

Consider `C1CCC(C(CC2CCCCN2)C2CCCCC2)CC1` (stereo not shown) [perhexiline], for which the “Annotation (hERG Active / Inactive)” value was “Inactive”.

As for `OCCN1CCN(CCCN2c3ccccc3Sc3ccc(Cl)cc32)CC1` [perphenazine], the “Annotation (hERG Active / Inactive)” value is recorded as “Inactive”.

Turning to `CC(COc1ccccc1)N(CCCl)Cc1ccccc1` (stereo not shown) [phenoxybenzamine], the “Annotation (hERG Active / Inactive)” value is recorded as “Inactive”.

On to `Cc1ccc(N(CC2=NCCN2)c2cccc(O)c2)cc1` [phentolamine], for which the “Annotation (hERG Active / Inactive)” value is “Active”.

`O=C(O)c1ccccc1C(=O)Nc1ccc(S(=O)(=O)Nc2nccs2)cc1` [phthalylsulfathiazole]: the “Annotation (hERG Active / Inactive)” value is given as “Inactive”.

On to `COc1cc(/C=C/C(=O)N2CCC=CC2=O)cc(OC)c1OC` [piperlongumine], for which the “Annotation (hERG Active / Inactive)” value is on record as “Inactive”.

As to `NS(=O)(=O)c1cc(C(=O)O)cc(N2CCCC2)c1Oc1ccccc1` [piretanide], the “Annotation (hERG Active / Inactive)” value was “Inactive”.

As to `c1cnc(N2CCN(Cc3ccc4c(c3)OCO4)CC2)nc1` [piribedil], the “Annotation (hERG Active / Inactive)” value was “Inactive”.

Turning to `COc1cc([C@@H]2c3cc4c(cc3[C@H](O)[C@H]3COC(=O)[C@H]23)OCO4)cc(OC)c1OC` [podophyllotoxin], the “Annotation (hERG Active / Inactive)” value is “Inactive”.

Take `CC(=O)Nc1ccc(OCC(O)CNC(C)C)cc1` (stereo not shown) [practolol]: the “Annotation (hERG Active / Inactive)” value is given as “Inactive”.

In the case of `COc1cc2nc(N3CCN(C(=O)c4ccco4)CC3)nc(N)c2cc1OC` [prazosin], the “Annotation (hERG Active / Inactive)” value is recorded as “Inactive”.

In the case of `CCOC(=O)O[C@]1(C(=O)COC(=O)CC)CC[C@H]2[C@@H]3CCC4=CC(=O)C=C[C@]4(C)[C@H]3[C@@H](O)C[C@@]21C` [prednicarbate], the “Annotation (hERG Active / Inactive)” value was “Inactive”.

`CCCNC(C)C(=O)Nc1ccccc1C` (stereo not shown) [prilocaine]: the “Annotation (hERG Active / Inactive)” value is “Inactive”.

Consider `CCC1(c2ccccc2)C(=O)NCNC1=O` [primidone], for which the “Annotation (hERG Active / Inactive)” value is listed as “Inactive”.

As to `CCCC(C(=O)OCCN(CC)CC)(c1ccccc1)c1ccccc1` [proadifen], the “Annotation (hERG Active / Inactive)” value is on record as “Active”.

As to `OC(CCN1CCCC1)(c1ccccc1)C1CCCCC1` (stereo not shown) [procyclidine], the “Annotation (hERG Active / Inactive)” value is reported as “Inactive”.

For the compound `CC(=O)[C@H]1CC[C@H]2[C@@H]3CCC4=CC(=O)CC[C@]4(C)[C@H]3CC[C@]12C` [progesterone], the “Annotation (hERG Active / Inactive)” value was “Inactive”.

Take `CCCN(CCC)C(=O)C(CCC(=O)O)NC(=O)c1ccccc1` (stereo not shown) [proglumide]: the “Annotation (hERG Active / Inactive)” value is reported as “Inactive”.
